Here are results for two compounds from publication PMC11313193, “Which Constituents Determine the Antioxidant Activity and Cytotoxicity of Garlic? Role of Organosulfur Compounds and Phenolics” (International Journal of Molecular Sciences, 2024).

For assay [1], the system named is HT-1080 fibrosarcoma cells. On the set-up: method as in PMID 21116690. Conditions: read-out: Concentration decreasing the viability of HT-1080 cells (by 50%); cited from earlier work.
Assay [2] relates to MDA-MB-231 cells. Also on record: method as in PMID 29048370. Conditions: read-out: Concentration decreasing the viability of MDA-MB-231 cells (by 50%); cited from earlier work.
Assay [3] concerns PEO1 ovarian cancer cells. The assay is described as follows: Cytotoxicity (Neutral Red), PEO1 cells. Format: cell-based, human. Conditions: 24 h exposure. As for the experimental part: (§1) The PEO1 cells, SKOV-3 cells, and MRC-5 cells were grown at 37 °C and 5% CO2 in RPMI + GlutaMAX medium, McCoy’s 5A medium, and the DMEM + GlutaMAX medium, respectively. The media were supplemented with 10% heat-inactivated fetal calf serum and penicillin/streptomycin. The cell viability was evaluated using the Trypan Blue exclusion test.
(§2) In the cytotoxicity experiments, cells were grown in wells of sterile 96-well plates. The seeding density was 1 × 10^4 for SKOV-3 and MRC-5 cells and 1.5 × 10^4 for PEO1 cells. The cells were allowed to grow in the incubator for 24 h. Then, the medium was removed and new medium with an examined compound was added. The stock solutions of the compounds studied diluted with the appropriate cell medium were filtered before the addition to the cells using 0.22 µm filters. No more than 0.02% of DMSO was present in the media, and it had no discernible impact on the treated cells. Cells not exposed to any compound served as a control. After another 24 h incubation, the medium was gently aspirated, and the wells were added with 2% sterile Neutral Red solution (100 µL). The plates were then incubated (37 °C, 5% CO2) for one hour. The Neutral Red solution was aspirated, and the wells were washed two times with warm (37 °C) PBS. Subsequently, 100 µL of a permeabilization mixture (water/ethanol/glacial acetic acid, 50/49/1, v/v/v) was introduced to each well. The plates were shaken at 700 rpm for 20 min and absorbance was read at a wavelength of 540 nm against 620 nm.

For assay [4], the system named is cervical cancer HeLa cells. On the set-up: method as in PMID 21199742. Conditions: after 24 h exposure; read-out: Concentration decreasing the viability of HeLa cells by 50%; cited from earlier work.
Assay [5] is described as follows: Ferric reducing antioxidant power (FRAP) assay. Conditions: 30 min at ambient temperature, pH 3.6, absorbance at 593 nm. As to the method:
The method proposed by Benzie and Strain [91] was employed with a slight modification. Briefly, increasing volumes of solutions of the studied compounds were added to wells of a 96-well microplate prefilled with 200 μL of the working solution composed of 0.3 M acetate buffer, pH 3.6 (10 volumes), 10 mM 2,4,6-tris(2-pyridyl)-s-triazine (TPTZ), in 40 mM HCl (1 volume) and 20 mM FeCl3 (1 volume), was prepared immediately before use. After 30 min incubation at ambient temperature and the absorbance of the Fe^2+-TPTZ complex was read at 593 nm.
(§3) All assays were standardized with respect to Trolox. The antioxidant activity was calculated in each case as a ratio of the slope of the dependence of absorbance change on the concentration of a studied compound to the slope of the dependence of absorbance change of standard samples concerning Trolox on the concentration of Trolox. Antioxidant activities were expressed in moles of Trolox equivalents (TE)/mol of a studied compound, as described previously.

The test system of assay [6] is SKOV-3 ovarian cancer cells. Nature of the assay: Cytotoxicity (Neutral Red), SKOV-3 cells. Format: cell-based, human. Conditions: 24 h exposure. As for the experimental part:
as §1, §2

The nature of assay [7]: DPPH^● decolorization assay. Conditions: 30 min at ambient temperature in the dark, absorbance at 517 nm. As to the method:
The assay was performed as described in a previous article. Briefly, increasing volumes of solutions of the studied compounds were introduced to wells of a 96-well microplate, each with 200 μL of 0.3 mM DPPH^● solution in methanol. The reaction was allowed to proceed for 30 min at ambient temperature in the dark, and absorbance at 517 nm was read. The absorbance decrease was a measure of the antioxidant activity.
as §3
A general note: DPPH is a stable violet radical that fades when it is reduced.

For another assay, the system named is MRC-5 fibroblasts. Nature of the assay: Cytotoxicity (Neutral Red), MRC-5 fibroblasts. Format: cell-based, human. Conditions: 24 h exposure. As for the experimental part: as §1, §2
Assay [8] can be described thus: ABTS^● decolorization assay. Conditions: 30 min incubation at room temperature, absorbance at 734 nm. As to the method: A modification of the ABTS^● decolorization assay was employed. Briefly, various volumes of solutions of the studied compounds were introduced to wells of a 96-well microplate, each prefilled 200 μL of ABTS^● solution. […] The drop in absorbance after 30 min incubation at room temperature was read as a measure of the antioxidant activity.
as §3

The test system of assay [9] is MDA-MB-231 cells. On the set-up: method as in PMID 27177074. Conditions: 100 μM; cited from earlier work.
Another assay deals with osteosarcoma 143B cells. On the set-up: method as in PMID 27158383. Conditions: after 48 h; read-out: Concentration decreasing viability of 143B cells to 50%; cited from earlier work.
The test system of a further assay is osteosarcoma MG63 cells. On the set-up: method as in PMID 27158383. Conditions: after 48 h; read-out: Concentration decreasing viability of MG63 cells to 50%; cited from earlier work.
Assay [10] has as its system PC-3 prostate cancer cells. On the set-up: method as in PMID 26124008. Conditions: read-out: Concentration decreasing viability of PC-3 cells to 50%; cited from earlier work.
For assay [11], the system named is LNCaP prostate cancer cells. Also on record: method as in PMID 26124008. Conditions: read-out: Concentration decreasing viability of LNCaP cells to 50%; cited from earlier work.

For `O=C(O)/C=C/c1ccc(O)c(O)c1` [Caffeic acid, caffeic acid], the IC50 was 30 µM in [1]; 151 µM with MDA-MB-231 cells [2]; 245 µM in assay [3] (Homo sapiens, PEO1, Neutral Red, read-out: IC50 PEO1); around 2000 µM in [4]; 1320 µM in assay [6] (Homo sapiens, SK-OV-3, Neutral Red, read-out: IC50 SKOV-3). For the same compound, the “Concentration at which viability of PEO1 cells was lowered” value in assay [3] (p < 0.05) lay in the range of 300 to 1000 µM. Moreover, the “Antioxidant activity, FRAP” value in assay [5] is reported as 0.019 ± 0.002 mol Trolox equivalents (TE)/mol compound. Besides, the “Concentration range with no significant decrease in viability of SKOV-3 cells” value in [6] is recorded as “up to 1000 µM”. Also, the “Antioxidant activity, DPPH^● Decolorization” value in assay [7] is given as 0.001 ± 0.006 mol Trolox equivalents (TE)/mol compound. In the assay with MRC-5 fibroblasts (p < 0.05), the “Concentration at which viability of MRC-5 cells was lowered” value was 1000 µM. Besides, in assay [8], the “Antioxidant activity, ABTS^● Decolorization” value was 0.771 ± 0.066 mol Trolox equivalents (TE)/mol compound.

In the case of `COc1cc(/C=C/C(=O)O)ccc1O` [Ferulic acid, ferulic acid], in [3], the “Concentration range with no significant decrease in viability of PEO1 cells” value was in the range of 0 to 1000 µM. Also, the “Viability of MDA-MB-231 cells (decreased to)” value in the assay with MDA-MB-231 cells [9] is “about 75%”. Moreover, the IC50 was 60 µM in the assay on osteosarcoma 143B cells, 66 µM in the assay on osteosarcoma MG63 cells, 300 µM in assay [10] and 500 µM in assay [11]. Moreover, the “Antioxidant activity, FRAP” value in assay [5] is given as 0.554 ± 0.017 mol Trolox equivalents (TE)/mol compound. In addition, in [6], the “Concentration range with no significant decrease in viability of SKOV-3 cells” value was 0 to 1000 µM. Also, the “Antioxidant activity, DPPH^● Decolorization” value in assay [7] is 0.185 ± 0.070 mol Trolox equivalents (TE)/mol compound. Further, the “Concentration range with no significant decrease in viability of MRC-5 cells” value in the assay with MRC-5 fibroblasts lay within 0 to 1000 µM. Further, the “Antioxidant activity, ABTS^● Decolorization” value in assay [8] is 1.409 ± 0.096 mol Trolox equivalents (TE)/mol compound.
